Counter-ions that a name gives are not always drawn.

In one test the target is T1, Proton Pump (H^+,K^+-ATPase) (Sus scrofa, UniProt P19156).
T1 construct: gastric vesicles were isolated from porcine stomachs; from tissue; host or cells: porcine stomach (gastric vesicles)
T1 sequence (P19156 2-1034 limits assumed): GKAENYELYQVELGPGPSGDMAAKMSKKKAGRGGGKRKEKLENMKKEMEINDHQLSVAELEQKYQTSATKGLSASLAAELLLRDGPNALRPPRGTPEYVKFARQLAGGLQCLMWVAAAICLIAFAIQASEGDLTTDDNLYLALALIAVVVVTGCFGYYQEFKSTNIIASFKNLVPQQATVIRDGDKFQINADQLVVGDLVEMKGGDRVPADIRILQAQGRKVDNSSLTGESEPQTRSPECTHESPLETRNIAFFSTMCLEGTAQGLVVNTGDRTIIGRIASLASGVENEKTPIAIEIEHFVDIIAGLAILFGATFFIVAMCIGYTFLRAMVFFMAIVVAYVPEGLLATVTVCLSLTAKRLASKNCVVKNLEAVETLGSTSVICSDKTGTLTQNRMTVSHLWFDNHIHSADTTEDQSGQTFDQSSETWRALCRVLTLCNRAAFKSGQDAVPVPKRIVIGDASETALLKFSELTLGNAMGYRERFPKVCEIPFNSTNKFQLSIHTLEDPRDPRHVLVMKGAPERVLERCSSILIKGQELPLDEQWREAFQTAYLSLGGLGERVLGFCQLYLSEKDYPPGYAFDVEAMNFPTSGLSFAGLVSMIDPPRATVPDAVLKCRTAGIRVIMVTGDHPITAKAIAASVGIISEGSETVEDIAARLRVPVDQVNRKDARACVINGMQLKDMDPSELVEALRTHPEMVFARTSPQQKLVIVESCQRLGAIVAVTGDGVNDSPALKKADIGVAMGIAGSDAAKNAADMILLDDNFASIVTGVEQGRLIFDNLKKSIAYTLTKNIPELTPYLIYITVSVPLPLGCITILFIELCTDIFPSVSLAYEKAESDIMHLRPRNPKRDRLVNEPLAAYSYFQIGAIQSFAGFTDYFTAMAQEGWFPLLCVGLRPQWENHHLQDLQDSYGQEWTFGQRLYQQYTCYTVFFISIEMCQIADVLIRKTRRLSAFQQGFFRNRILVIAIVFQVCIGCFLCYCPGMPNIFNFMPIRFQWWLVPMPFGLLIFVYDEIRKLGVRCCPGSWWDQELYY
T1 sequence (P18434 whole entry partner): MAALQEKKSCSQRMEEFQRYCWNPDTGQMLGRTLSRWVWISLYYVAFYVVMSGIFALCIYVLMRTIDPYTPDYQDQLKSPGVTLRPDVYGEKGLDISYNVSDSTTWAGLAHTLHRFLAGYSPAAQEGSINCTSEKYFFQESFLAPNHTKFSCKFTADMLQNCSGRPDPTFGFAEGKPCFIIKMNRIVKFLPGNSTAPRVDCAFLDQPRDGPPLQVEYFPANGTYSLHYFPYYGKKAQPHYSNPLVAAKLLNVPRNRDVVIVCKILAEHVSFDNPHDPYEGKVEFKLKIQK
Put plainly: Inhibitory activity on proton pump (H+,K+-ATPase) activity, porcine gastric vesicles, malachite green readout. To be noted: porcine gastric vesicles, pH 6.5, 8 mM KCl, 0.2 mM ATP. The format is biochemical. The procedure:
Specifically, gastric vesicles were isolated from porcine stomachs, and the protein content of the vesicles was quantified using a BSA kit (Bio-Rad, 5000205). All reactions were performed in 96-well plates with a reaction volume of […] containing 100 ng of vesicles. 10 mM valinomycin and the test compound were added to reaction buffer (50 mM Tris-HEPES, 5 mM MgCl2, 8 mM KCl, pH 6.5) containing porcine gastric vesicles at various concentrations, and the mixture was incubated at 37°C for 30 minutes. DMSO or test compounds at different concentrations were added after diluting them to a final DMSO concentration of 0.1%. 0.2 mM adenosine triphosphate (ATP) was then added to the reaction buffer and incubated at 37°C for 20 minutes. The reaction was stopped with 0.2% Tween 20, followed by the addition of malachite green (Sigma Aldrich, MAK307) and incubation at room temperature for 30 minutes. The optical density (OD) value was measured at 620 nm using a microplate reader (Spectramax M5e, Molecular devices). The percent (%) inhibition was derived from the OD values of the control group and various concentrations of the test compounds. The IC50 of the test compounds was analyzed using nonlinear regression using the GraphPad Prism8 program using the % inhibition value at each concentration.
In general, IC50 refers to the concentration that gives 50% inhibition. Low readings indicate inhibition by little substance, high ones a need for much substance. Compound `Cc1cccc(C)c1CNc1cc(NC(=O)NCCC(=O)O)cn2c(C)c(C)nc12` [Example 71, 3-(3-(8-((2,6-dimethylbenzyl)amino)-2,3-dimethylimidazo[1,2-a]pyridin-6-yl)ureido)propionic acid citrate] registered an IC50 of 100 to 500 nM.
Still for that read-out and setting: the result for `Cc1cccc(C)c1CNc1cc(N2C(=O)NCCNC2=O)cn2c(C)c(C)nc12` [Example 72, 3-(8-((2,6-dimethylbenzyl)amino)-2,3-dimethylimidazo[1,2-a]pyridin-6-yl)-1,3,5-triazepane-2,4-dione] reads 100 to 500 nM; that for `CC(=O)NCCNC(=O)Nc1cc(NCc2c(C)cccc2C)c2nc(C)c(C)n2c1` [Example 73, N-(2-(3-(8-((2,6-dimethylbenzyl)amino)-2,3-dimethylimidazo[1,2-a]pyridin-6-yl)ureido)ethyl)acetamide], 100 to 500 nM.
Consider `Cc1cccc(C)c1CNc1cc(NC(=O)NCC2CCOC2)cn2c(C)c(C)nc12` (stereo not drawn) [Example 74, 1-(8-((2,6-dimethylbenzyl)amino)-2,3-dimethylimidazo[1,2-a]pyridin-6-yl)-3-((tetrohydrofuran-3-yl)methyl)urea hydrochloride], for which the IC50 lay in the range of 50 to 100 nM.
Same read-out and setting: the result for `Cc1cccc(C)c1CNc1cc(NC(=O)[C@@]2(C)CCN2)cn2c(C)c(C)nc12` [Example 75, (R)-N-(8-((2,6-dimethylbenzyl)amino)-2,3-dimethylimidazo[1,2-a]pyridin-6-yl)-2-methylazetidine-2-carboxamide hydrochloride] reads 100 to 500 nM.
On the same count and under the same terms, the value for `Cc1cccc(C)c1CNc1cc(NC(=O)C[C@H]2CCN2)cn2c(C)c(C)nc12` [Example 76, (R)-2-(azetidin-2-yl)-N-(8-((2,6-dimethylbenzyl)amino)-2,3-dimethylimidazo[1,2-a]pyridin-6-yl)acetamide hydrochloride] was 50 to 100 nM; that for `Cc1cccc(C)c1CNc1cc(NC(=O)N2CC(c3ccccc3)C2)cn2c(C)c(C)nc12.O=C(O)CC(O)(CC(=O)O)C(=O)O` [Example 77, N-(8-((2,6-dimethylbenzyl)amino)-2,3-dimethylimidazo[1,2-a]pyridin-6-yl)-3-phenylazetidine-1-carboxamide citrate] was < 50 nM.
For `Cc1cccc(C)c1CNc1cc(NC(=O)N[C@H]2CCc3ccccc32)cn2c(C)c(C)nc12` [Example 78, (S)-1-(2,3-dihydro-1H-inden-1-yl)-3-(8-((2,6-dimethylbenzyl)amino)-2,3-dimethylimidazo[1,2-a]pyridin-6-yl)urea hydrochloride], the IC50 lay in the range of 100 to 500 nM.
In turn, `CNC(=O)N1CC[C@H]1C(=O)Nc1cc(NCc2c(C)cccc2C)c2nc(C)c(C)n2c1` [Example 79, (S)-N2-(8-((2,6-dimethylbenzyl)amino)-2,3-dimethylimidazo[1,2-a]pyridin-6-yl)-N1-methylazetidine-1,2-dicarboxamide] returned an IC50 of 100 to 500 nM.
The same measure, in the same setting: the value for `Cc1cccc(C)c1CNc1cc(NC(=O)N[C@@H]2CCc3ccccc32)cn2c(C)c(C)nc12` [Example 80, (R)-1-(2,3-dihydro-1H-inden-1-yl)-3-(8-((2,6-dimethylbenzyl)amino)-2,3-dimethylimidazo[1,2-a]pyridin-6-yl)urea hydrochloride] was > 500 nM; that for `Cc1cccc(C)c1CNc1cc(NC(=O)CN2CCC2=O)cn2c(C)c(C)nc12` [Example 81, N-(8-((2,6-dimethylbenzyl)amino)-2,3-dimethylimidazo [1,2-a]pyridin-6-yl)-2-(2-oxoazetidin-1-yl)acetamide] was 50 to 100 nM; that for `Cc1cccc(C)c1CNc1cc(NC(=O)N2CCC(c3ccccc3)CC2)cn2c(C)c(C)nc12` [Example 82, N-(8-((2,6-dimethylbenzyl)amino)-2,3-dimethylimidazo[1,2-a]pyridin-6-yl)-4-phenylpiperidine-1-carboxamide] was 100 to 500 nM.
On the same count and under the same terms, the value for `Cc1cccc(C)c1CNc1cc(NC(=O)N2CCCC(c3ccccc3)C2)cn2c(C)c(C)nc12` (stereo not drawn) [Example 83, N-(8-((2,6-dimethylbenzyll)amino)-2,3-dimethylimidazo[1,2-a]pyridin-6-yl)-3-phenylpiperidine-1-carboxamide] was 100 to 500 nM; that for `Cc1cccc(C)c1CNc1cc(NC(=O)N2CCC(c3ccccc3)C2)cn2c(C)c(C)nc12` (stereo not drawn) [Example 84, N-(8-((2,6-dimethylbenzyl)amino)-2,3-dimethylimidazo[1,2-a]pyridin-6-yl)-3-phenylpyrrolidine-1-carboxamide] was 100 to 500 nM; that for `Cc1cccc(C)c1CNc1cc(NC(=O)[C@H]2CNCCN2)cn2c(C)c(C)nc12` [Example 85, (R)-N-(8-((2,6-dimethylbenzyl)amino)-2,3-dimethylimidazo[1,2-a]pyridin-6-yl)piperazine-2-carboxamide hydrochloride] was 100 to 500 nM.
As to `Cc1cccc(C)c1CNc1cc(NC(=O)N(C)CCN)cn2c(C)c(C)nc12` [Example 87, 1-(2-aminoethyl)-3-(8-((2,6-dimethylbenzyl)amino)-2,3-dimethylimidazo[1,2-a]pyridin-6-yl)-1-methylurea hydrochloride], the IC50 is < 50 nM.
Still for that read-out and setting: the value for `Cc1cccc(C)c1CNc1cc(NC(=O)NCCO)cn2c(C)c(C)nc12` [Example 88, 1-(8-((2,6-dimethylbenzyl)amino)-2,3-dimethylimidazo[1,2-a]pyridin-6-yl)-3-(2-hydroxyethyl)urea citrate] was < 50 nM; that for `Cc1cccc(C)c1CNc1cc(NC(=O)[C@@H]2CCNC2)cn2c(C)c(C)nc12` [Example 89, (R)-N-(8-((2,6-dimethylbenzyl)amino)-2,3-dimethylimidazo[1,2-a]pyridin-6-yl)pyrrolidine-3-carboxamide hydrochloride] was 50 to 100 nM.
The compound `Cc1cccc(C)c1CNc1cc(NC(=O)[C@H]2CCCCN2)cn2c(C)c(C)nc12` [Example 90, (R)-N-(8-((2,6-dimethylbenzyl)amino)-2,3-dimethylimidazo[1,2-a]pyridin-6-yl)piperidine-2-carboxamide hydrochloride] yielded an IC50 of 50 to 100 nM.
On the same count and under the same terms, the value for `Cc1cccc(C)c1CNc1cc(NC(=O)C[C@H]2CCCN2)cn2c(C)c(C)nc12` [Example 91, (R)-N-(8-((2,6-dimethylbenzyl)amino)-2,3-dimethylimidazo[1,2-a]pyridin-6-yl)-2-(pyrrolidin-2-yl)acetamide hydrochloride] was 50 to 100 nM.
The same measure, in the same setting: the value for `Cc1cccc(C)c1CNc1cc(NC(C)C)cn2c(C)c(C)nc12` [Example 92, N^8-(2,6-dimethylbenzyl)-N^6-isopropyl-2,3-dimethylimidazo [1,2-a] pyridine-6,8-diamine] was > 500 nM; that for `Cc1cccc(C)c1CNc1cc(NC(=O)C[C@@H]2CCCN2)cn2c(C)c(C)nc12` [Example 93, (S)-N-(8-((2,6-dimethylbenzyl)amino)-2,3-dimethylimidazo[1,2-a]pyridin-6-yl)-2-(pyrrolidin-2-yl)acetamide hydrochloride] was < 50 nM; that for `Cc1cccc(C)c1CNc1cc(NC(=O)[C@@H]2CNCCN2)cn2c(C)c(C)nc12` [Example 94, (S)-N-(8-((2,6-dimethylbenzyl)amino)-2,3-dimethylimidazo[1,2-a]pyridin-6-yl)piperazine-2-carboxamide hydrochloride] was < 50 nM.

The test is the same for the next values; noted with them: result in words.
In the case of `Cc1cccc(C)c1CNc1cc(NC(=O)N2CC(c3ccccc3)C2)cn2c(C)c(C)nc12.O=C(O)CC(O)(CC(=O)O)C(=O)O` [Example 77, N-(8-((2,6-dimethylbenzyl)amino)-2,3-dimethylimidazo[1,2-a]pyridin-6-yl)-3-phenylazetidine-1-carboxamide citrate], the “inhibitory activity against proton pump activity” value is “excellent inhibitory properties”.
